{"source": "patent US6538029B1", "about": "“Methods for treatment of renal cell carcinoma” (Cell Pathways, priority 2002, dated 2003)", "key": {"PDE10 from 786-O": {"target": "PDE10 from 786-O (Homo sapiens, UniProt Q9Y233)", "sequence (Q9Y233 290-1055 limits assumed)": "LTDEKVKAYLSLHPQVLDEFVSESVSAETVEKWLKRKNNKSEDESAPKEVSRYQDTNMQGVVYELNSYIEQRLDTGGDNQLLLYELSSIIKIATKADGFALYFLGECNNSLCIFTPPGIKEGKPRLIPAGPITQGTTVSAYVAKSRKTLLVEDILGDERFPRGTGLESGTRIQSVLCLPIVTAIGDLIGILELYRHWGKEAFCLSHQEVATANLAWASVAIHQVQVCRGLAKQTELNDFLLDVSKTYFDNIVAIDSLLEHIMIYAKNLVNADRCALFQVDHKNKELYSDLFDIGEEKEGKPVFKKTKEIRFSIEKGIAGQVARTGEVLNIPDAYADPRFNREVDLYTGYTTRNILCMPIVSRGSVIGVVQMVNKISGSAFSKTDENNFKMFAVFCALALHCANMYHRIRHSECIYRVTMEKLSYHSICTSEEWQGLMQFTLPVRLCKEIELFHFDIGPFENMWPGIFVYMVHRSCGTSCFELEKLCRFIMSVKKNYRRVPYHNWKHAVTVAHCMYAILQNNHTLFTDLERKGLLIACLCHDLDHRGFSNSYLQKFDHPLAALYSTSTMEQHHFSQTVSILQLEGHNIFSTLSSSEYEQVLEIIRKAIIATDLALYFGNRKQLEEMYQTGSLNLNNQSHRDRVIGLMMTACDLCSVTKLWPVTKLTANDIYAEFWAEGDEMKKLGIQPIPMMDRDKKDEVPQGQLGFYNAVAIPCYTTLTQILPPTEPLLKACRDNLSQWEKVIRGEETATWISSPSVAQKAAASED", "experiment": "Inhibition and kinetics of PDE10 from 786-O (pooled fractions of the center peak)", "assay_type": "biochemical", "conditions": "IC50 on PDE10 from 786-O (inhibition of cGMP PDE activity), pooled center-peak fractions; FIG. 8, 9", "protocol": "(§1) Fractions were pooled from a 786-O profile from the center peak.\nas §1\n(§2) Protein assays were determined using the Bio-Rad DC Protein Assay. A nonlinear regression to the Michalis-Menten equation in Prism was used to determine the Km and Vmax.\nas §2"}, "786-O cells [1]": {"test_system": "786-O cells", "experiment": "Apoptosis on 786-O cells (Roche Cell Death Assay)", "assay_type": "cell-based, human", "conditions": "Homo sapiens, 786-0; 48 hours with drug; read-out: IC50 for induction of apoptosis in the 786-O cell line", "protocol": "Testing of PDE10-Inhibiting Compounds for Apoptosis on Renal Carcinoma (786-O) Cells. […] After 24 hours, the media was removed and the same media containing the drug was added to the cells (0.1% DMSO final concentration). After 48 hours, apoptosis was detected using the Roche Cell Death Assay."}, "786-O cells [2]": {"test_system": "786-O cells", "assay_type": "cell-based", "conditions": "Homo sapiens, 786-0, 144 h; 6 days with drug, sulforhodamine B", "protocol": "Testing of Neoplastic Cell Growth Inhibition of PDE10-Inhibiting Compounds on Renal Cell Carcinoma (786-O) Cells. […] After 24 hours, the media was removed, and the same media containing the drug was added to the cells (0.1% DMSO final concentration)."}, "renal cell carcinoma": {"test_system": "renal cell carcinoma", "experiment": "Human clinical study in locally advanced or metastatic renal cell cancer", "assay_type": "in vivo", "protocol": "Patients were treated with 400 mg daily (200 mg twice daily) and continued at this dose throughout the study, provided no intolerable toxicity or disease progression occurred. Disease response was assessed by physical examination, chest x-ray and MRI or CT scan every eight weeks.\nNineteen patients with heavily pre-treated advanced, progressive renal cell carcinoma were entered into the study. […] The patients were on drug daily for a minimum of eight weeks.\nThe adverse events, which were reported (regardless of relationship), were of the nature and severity expected in this patient population."}, "PDE5": {"target": "T1, PDE5 (Homo sapiens, UniProt O76074)", "T1 construct": "partially purified cGMP-specific PDE isolated from HT-29 cells; endogenous in cells; host or cells: HT-29 cells (partially purified enzyme)", "experiment": "cGMP PDE inhibition, PDE5", "assay_type": "biochemical", "excerpt": "Compounds of this invention are also PDE2 and PDE5 inhibitors as taught in part U.S. patent application Ser. No. 09/046,739 filed Mar. 24, 1998, now abandoned. Compounds can be tested for inhibitory effect on phosphodiesterase activity using either the enzyme isolated from any tumor cell line such as HT-29 or SW-480. […] (Thompson, W. J., Teraski, W. L., Epstein, P. M., Strada, S. J., Advances in Cyclic Nucleotide Research, 10:69-92, 1979, which is incorporated herein by reference). In brief, asolution of defined substrate ^3H-cGMP specific activity (0.2 μM; 100,000 cpm; containing 40 mM Tris-HCl (pH 8.0), 5 mM MgCl2 and 1 mg/ml BSA) is mixed with the drug to be tested in a total volume of 400μl. The mixture is incubated at 30° C. for 10 minutes with partially purified cGMP-specific PDE isolated from HT-29 cells. Reactions are terminated, for example, by boiling the reaction mixture for 75 seconds. After cooling on ice, 100 μl of 0.5 mg/ml snake venom (O. Hannah venom available from Sigma) is added and incubated for 10 min at 30° C. […] The amount of radioactivity in the breakthrough and the wash from the columns in then measured with a scintillation counter. The degree of PDE5 inhibition is determined by calculating the amount of radioactivity in drug-treated reactions and comparing against a control sample (a reaction mixture lacking the tested compound)."}, "PDEI": {"test_system": "PDEI", "experiment": "PDE inhibition, PDEI (similar protocols)", "assay_type": "biochemical"}, "PDE4": {"test_system": "PDE4", "experiment": "PDE inhibition, PDE4 (similar protocols)", "assay_type": "biochemical"}, "[3]": {"experiment": "Seven-day dose-range finding study in rats", "assay_type": "in vivo", "conditions": "seven days"}, "28-day study in rats": {"experiment": "28-day study in rats", "assay_type": "in vivo", "protocol": "A 28-day study in rats was also carried out at 0, 50, 500 and 2000 mg/kg/day."}, "[4]": {"experiment": "91-day long-term safety assessment study in rats", "assay_type": "in vivo", "excerpt": "These changes were not associated with any gross clinical abnormality."}, "[5]": {"experiment": "91-day oral study in dogs", "assay_type": "in vivo"}, "[6]": {"experiment": "Single, escalating dose normal human volunteer clinical trial", "assay_type": "in vivo", "conditions": "normal human volunteers, oral single escalating dose, any dose (50 mg-700 TDD)"}, "[7]": {"experiment": "Phase I trial in patients with a range of solid tumors", "assay_type": "in vivo", "protocol": "Cycles were repeated without a treatment-free interval. Doses ranged from 100 to 800 mg/day."}, "[8]": {"conditions": "rat, in vivo"}, "[9]": {"conditions": "dog, in vivo", "quoted_text": "(§3) Therefore, these dogs were subsequently administered seven consecutive doses of 1000 mg/kg/day."}, "[10]": {"experiment": "Acute toxicity study in rats", "conditions": "rat, in vivo"}, "[11]": {"experiment": "Acute and seven-dose toxicity in dogs (capsules)", "conditions": "both, dog, in vivo, po, 1000 mg/kg", "quoted_text": "as §3"}, "[12]": {"conditions": "28 days, 50, 500 and 2000 mg/kg/day"}}, "note": "Where a name gives a salt, the structure may show the parent alone. Read-outs that look alike come from different tables or passages of the source."}
{"smiles": "CC1=C(CC(=O)NCc2ccccc2)c2cc(F)ccc2C1=Cc1ccncc1", "note": "[Compound 38, (Z)-5-Fluoro-2-methyl-(4-pyridylidene)-3-(N-benzyl)indenylacetamide Hydrochloride]", "values": [{"measurement": "IC50", "setting": "PDE10 from 786-O", "result": 3.7, "unit": "µM"}, {"measurement": "IC50", "setting": "786-O cells [1]", "result": 1, "unit": "µM"}, {"measurement": "IC50", "setting": "786-O cells [2]", "result": 1.1, "unit": "µM"}, {"measurement": "Serious Adverse Events due to the drug", "setting": "renal cell carcinoma; 400 mg daily, renal cell carcinoma patients", "result": "No Serious Adverse Event due to the drug was reported"}, {"measurement": "Patients who achieved stable disease", "setting": "renal cell carcinoma; interim evaluation of 16 evaluable patients, 400 mg daily (200 mg twice daily), minimum of eight weeks", "result": "six"}, {"measurement": "IC50", "setting": "PDE5", "result": 4, "unit": "µM"}, {"measurement": "IC50", "setting": "PDEI", "result": 3, "unit": "µM"}, {"measurement": "IC50", "setting": "PDE4", "result": 6, "unit": "µM"}, {"measurement": "Signs of toxicity", "setting": "[3]; 50 mg/kg/day", "result": "no observable signs of toxicity"}, {"measurement": "Treatment-related effects", "setting": "[3]; 500 mg/kg/day", "result": "an increase in absolute and relative liver weights in female rats"}, {"measurement": "Treatment-related effects", "setting": "[3]; 2000 mg/kg/day", "result": "labored breathing and/or abnormal respiratory sounds, decreased weights gains and food consumption in male rats, and increased liver weights in female rats"}, {"measurement": "Hematology, blood chemistry, microscopic pathology", "setting": "[3]; any dose level (50, 500, 2000 mg/kg/day)", "result": "No hematological or blood chemistry changes nor any microscopic pathology changes"}, {"measurement": "Macroscopic tissue changes at necropsy", "setting": "28-day study in rats; 28 days", "result": "No macroscopic tissue changes"}, {"measurement": "Liver weights", "setting": "28-day study in rats; 28 days, 2000 mg/kg/day", "result": "statistically significant increase"}, {"measurement": "Thyroid weights", "setting": "28-day study in rats; 28 days, 2000 mg/kg/day", "result": "statistically significant increases"}, {"measurement": "Body weight changes, ophthalmoscopic examinations, hematological and blood chemistry values, urinalysis", "setting": "28-day study in rats; [12]", "result": "unremarkable"}, {"measurement": "Clinical observations", "setting": "28-day study in rats; [12]", "result": "no abnormal clinical observations"}, {"measurement": "Histopathological evaluation of tissues", "setting": "28-day study in rats; 28 days, generally a small number of animals at 2000 mg/kg/day, one female at 500 mg/kg/day", "result": "traces of follicular cell hypertrophy, increased numbers of mitotic figures (suggestive of possible cell proliferation) in the thyroid gland and mild centrilobular hypertrophy in the liver"}, {"measurement": "Slight liver and thyroid increases", "setting": "28-day study in rats; 28 days, lower doses", "result": "not statistically significant"}, {"measurement": "Clinical biochemistry and hematology", "setting": "[4]; 91 days", "result": "no changes"}, {"measurement": "Microscopic findings", "setting": "[4]; 91 days", "result": "slight hepatocellular hypertrophy at 200 and 500 mg/kg/day groups, follicular cell hypertrophy at 500 mg/kg/day and increase in accumulation of hyalin droplets in the kidneys at 200 and 500 mg/kg/day group"}, {"measurement": "Organ weights", "setting": "[4]; 91 days, males and females at 200 and 500 mg/kg/day", "result": "dose-related trend to increased liver and thyroid/parathyroid weights"}, {"measurement": "Toxicological effects", "setting": "[4]; oral, 91 consecutive days, 50, 200 and 500 mg/kg/day", "result": "did not produce any major toxicological effects"}, {"measurement": "Microscopic alterations (liver)", "setting": "[5]; 91 days", "result": "no microscopic alterations"}, {"measurement": "Tolerability", "setting": "[5]; 91 days", "result": "well tolerated"}, {"measurement": "Feces", "setting": "[5]; 91 days, 150 and 300 mg/kg/day groups", "result": "Orange discoloration of the feces"}, {"measurement": "Body weights", "setting": "[5]; 91 days, highest dose group", "result": "Slightly lowered body weights"}, {"measurement": "Liver weights", "setting": "[5]; 91 days, highest dose group", "result": "increased liver weights"}, {"measurement": "Toxicological effects", "setting": "[5]; oral, 91 consecutive days, 50, 150 and 300 mg/kg/day", "result": "no toxicological effects"}, {"measurement": "Side effects", "setting": "[6]", "result": "no significant side effects"}, {"measurement": "Tolerability of therapy", "setting": "[7]; 21 patients, orally twice daily for 28 consecutive days, 100 to 800 mg/day", "result": "well tolerated overall"}, {"measurement": "Maximum tolerated dose", "setting": "[7]; 100 to 800 mg/day", "result": "not reached"}, {"measurement": "Toxicity", "setting": "[7]; up to 800 mg TDD, orally, twice-daily schedule", "result": "minimally toxic"}, {"measurement": "Body weight gain", "setting": "[8]; ip, 1000 mg/kg", "result": "reduced body weight gain"}, {"measurement": "Necropsy finding", "setting": "[8]; ip, 1000 mg/kg", "result": "mesenteric adhesions seen in some animals"}, {"measurement": "Body weight gains", "setting": "[8]; po, 2000 mg/kg", "result": "slightly reduced"}, {"measurement": "Signs of toxicity", "setting": "[9]; 1000 mg/kg", "result": "no signs of toxicity"}, {"measurement": "Signs of drug-related effects", "setting": "[9]; 1000 mg/kg/day", "result": "At no time in either dosing phase were any obvious signs of drug-related effects observed"}, {"measurement": "LD50", "setting": "[10]; ip, 1000 mg/kg", "result": "> 1000", "unit": "mg/kg"}, {"measurement": "LD50", "setting": "[10]; po", "result": "> 2000", "unit": "mg/kg"}, {"measurement": "LD50", "setting": "[11]", "result": "> 1000", "unit": "mg/kg"}]}
